US20040162263A1, “Pharmaceutical formulations targeting specific regions of the gastrointesinal tract” (priority 2002, published 2004)

Assay: Pharmacokinetics of 9-nitro-camptothecin (9NC) in IVAP beagle dog model
Type: in vivo, beagle dogs
Conditions: for Mean AUC0-inf of 9-AC, Portal Vein AUC / Mean AUC0-inf of 9-AC, Systemic AUC: in ng·h/mL
Protocol: Blood samples were taken systemic and from the portal vein through a sampling/delivery vascular port previously implanted, then plasma was separated by centrifugation and kept frozen at −80° C. until analysis.
The samples were analyzed in a Perkin Elmer liquid chromatography-tandem mass spectrometer system with a PE LC-200 Micro pump, a PE200 Autosampler and a PE Sciex API 365 mass spectrometry unit.
Adult male beagle dogs (between the ages of 1 and 5 years and weighed between 9 and 16 kg) were obtained from Summit Ridge Farms, Susquehanna, Pa. The IVAP dogs were prepared by using a protocol similar to the one used for pentostatin experiments described above.
On the morning of the test, each animal is weighed and placed in the sling. An IV catheter is installed in the brachial vein for systemic blood sampling with a multiuse vacutainer needle adapter. This is flushed with heparinized saline (50 units/ml) to maintain potency between sampling. When necessary, a 20 g or 22 g right-angled Huber infusion set would be placed in the PV port and attached to a three-way stopcock for PV blood sampling.
The preparation of the dose depends on the route of study. In case of IV and PV administration, the drug was dissolved in dimethylacetamide (DMA) at 5 mg/ml and 0.5 ml of the DMA concentrate filtered through a […] filter into 4.5 ml of diluent (51% PEG-400 49% 0.001 M H3PO4) prior to administration to the brachial or portal vein. In the case of all other infusions, as well as oral administration, the drug was dissolved in vegetable oil to a concentration of 1 mg/ml and drawn up into dosing syringes. Animals were dosed IV at 0.1 and 0.2 mg/kg and 0.2 mg/kg for all the other routes of administration tested.
In intravascular studies, the dose is administered via a second catheter and the entire volume is delivered within 45 seconds.
In portal vein studies, the dose is also administered via an additional catheter over a 30 min time period.
In the case of oral dosages, the dose is delivered to the back of the mouth with an appropriate size syringe and is followed with 5 ml of tap water to assist swallowing and clearance of the dose from the mouth. Capsules were administered similarly by placing them at the back of the mouth and giving around 5 ml of water to facilitate swallowing.
For all other tests, the dosage is infused into the appropriate intestinal port and flushed with 2-3 ml of sterile saline. The dead space volume of the ports and tubing vary slightly between individuals, but are generally less than 0.5 ml total. […]
Systemic blood samples allow the calculation of AUC0-inf after oral capsule administration only and portal vein AUC for all the routes of administration.

[1] = 9-NC 0.2 mg/kg COLON port, 0.17 hr
[2] = 9-NC 0.2 mg/kg ileum port, 0.17 hr
[3] = 9-NC 0.2 mg/kg jejunal port, 0.17 hr
[4] = portal vein samples, 9-NC via COLON port
[5] = portal vein samples, 9-NC via ILEUM port
[6] = portal vein samples, 9-NC via JEJUNUM port
[7] = systemic samples, 9-NC via COLON port
[8] = systemic samples, 9-NC via ILEUM port
[9] = systemic samples, 9-NC via JEJUNUM port

Which results are given for `CC[C@@]1(O)C(=O)OCc2c1cc1n(c2=O)Cc2cc3c(N)cccc3nc2-1` [9-AC, 9-amino-20(S)-camptothecin]?
Mean plasma concentration, Portal Vein [1]: 0.50 ± 0.03 ng/mL; Mean plasma concentration, Systemic [1]: 0.42 ng/mL; Mean plasma concentration, Portal Vein [2]: 0.12 ng/mL; Mean plasma concentration, Systemic [2]: BQL; Mean plasma concentration, Portal Vein [3]: 0.10 ng/mL; Mean plasma concentration, Systemic [3]: BQL; Mean AUC0-inf of 9-AC, Portal Vein AUC (9-NC Intracolon): 20.81 ± 9.57; Mean AUC0-inf of 9-AC, Systemic AUC (9-NC Intracolon): 36.91 ± 22.62; Mean AUC0-inf of 9-AC, Systemic AUC (9-NC Intraileum): 21.23 ± 14.94; Mean AUC0-inf of 9-AC, Portal Vein AUC (9-NC Intrajejunal): 50.26 ± 6.65; Mean AUC0-inf of 9-AC, Systemic AUC (9-NC Intrajejunal): 24.41 ± 7.77; Mean AUC0-inf of 9-AC, Portal Vein AUC (9-NC Intravenous (0.1 mg/kg)): 10.76 ± 3.02; Mean AUC0-inf of 9-AC, Systemic AUC (9-NC Intravenous (0.1 mg/kg)): 12.14 ± 5.68; Mean AUC0-inf of 9-AC, Portal Vein AUC (9-NC Intravenous (0.2 mg/kg)): 25.02 ± 9.87; Mean AUC0-inf of 9-AC, Systemic AUC (9-NC Intravenous (0.2 mg/kg)): 21.04 ± 2.36; Mean AUC0-inf of 9-AC, Portal Vein AUC (9-NC Oral - capsule): 66.15 ± 34.53; Mean AUC0-inf of 9-AC, Systemic AUC (9-NC Oral - capsule): 44.74 ± 24.72; Mean AUC0-inf of 9-AC, Portal Vein AUC (9-NC Oral - suspension): 34.43 ± 9.52; Mean AUC0-inf of 9-AC, Systemic AUC (9-NC Oral - suspension): 20.31 ± 6.97; Mean AUC0-inf of 9-AC, Systemic AUC (9-NC Portal vein): 4.73 ± 0.73; Mean plasma concentration, Portal Vein (COLON port, 0.5 hr): 0.77 ± 0.42 ng/mL; Mean plasma concentration, Systemic (COLON port, 0.5 hr): 0.30 ± 0.29 ng/mL; Mean plasma concentration, Portal Vein (COLON port, 1 hr): 1.20 ± 0.60 ng/mL; Mean plasma concentration, Systemic (COLON port, 1 hr): 0.45 ± 0.20 ng/mL; Mean plasma concentration, Portal Vein (COLON port, 1.5 hr): 1.19 ± 0.97 ng/mL; Mean plasma concentration, Systemic (COLON port, 1.5 hr): 0.76 ± 0.12 ng/mL; Mean plasma concentration, Portal Vein (COLON port, 2 hr): 1.50 ± 0.66 ng/mL; Mean plasma concentration, Systemic (COLON port, 2 hr): 0.68 ± 0.11 ng/mL; Mean plasma concentration, Portal Vein (COLON port, 3 hr): 0.88 ± 0.19 ng/mL; Mean plasma concentration, Systemic (COLON port, 3 hr): 0.83 ± 0.36 ng/mL; Mean plasma concentration, Portal Vein (COLON port, 4 hr): 2.06 ± 1.69 ng/mL; Mean plasma concentration, Systemic (COLON port, 4 hr): 0.90 ± 0.45 ng/mL; Mean plasma concentration, Portal Vein (COLON port, 6 hr): 1.54 ± 1.06 ng/mL; Mean plasma concentration, Systemic (COLON port, 6 hr): 0.74 ± 0.06 ng/mL; Mean plasma concentration, Portal Vein (COLON port, 8 hr): 0.70 ng/mL; Mean plasma concentration, Systemic (COLON port, 8 hr): 1.14 ± 0.38 ng/mL; Mean plasma concentration, Systemic (COLON port, 10 hr): 0.77 ng/mL; Mean plasma concentration, Portal Vein (COLON port, 12 hr): 0.76 ng/mL; Mean plasma concentration, Systemic (COLON port, 12 hr): 1.11 ± 0.78 ng/mL; Mean plasma concentration, Portal Vein (COLON port, 24 hr): 0.77 ng/mL; Mean plasma concentration, Systemic (COLON port, 24 hr): 0.83 ± 0.00 ng/mL; half-life of metabolite (after IV 0.1 mg/kg 9-NC): 3.51 ± 1.87 h; half-life of metabolite (after IV 0.2 mg/kg 9-NC): 6.94 ± 2.87 h; time at which the metabolite reached the maximum concentration (after IV dosing of 9-NC): around 1 hr; Mean plasma concentration, Portal Vein (ileum port, 0.5 hr): 0.26 ng/mL; Mean plasma concentration, Systemic (ileum port, 0.5 hr): 0.11 ng/mL; Mean plasma concentration, Portal Vein (ileum port, 1 hr): 0.28 ± 0.06 ng/mL; Mean plasma concentration, Systemic (ileum port, 1 hr): 0.20 ng/mL; Mean plasma concentration, Portal Vein (ileum port, 1.5 hr): 0.75 ± 0.52 ng/mL; Mean plasma concentration, Systemic (ileum port, 1.5 hr): 0.23 ± 0.10 ng/mL; Mean plasma concentration, Portal Vein (ileum port, 2 hr): 0.99 ± 0.60 ng/mL; Mean plasma concentration, Systemic (ileum port, 2 hr): 0.52 ± 0.42 ng/mL; Mean plasma concentration, Portal Vein (ileum port, 3 hr): 1.80 ± 1.97 ng/mL; Mean plasma concentration, Systemic (ileum port, 3 hr): 1.40 ng/mL; Mean plasma concentration, Portal Vein (ileum port, 4 hr): 3.06 ± 3.74 ng/mL; Mean plasma concentration, Systemic (ileum port, 4 hr): 0.86 ± 0.67 ng/mL; Mean plasma concentration, Portal Vein (ileum port, 6 hr): 4.09 ± 4.44 ng/mL; Mean plasma concentration, Systemic (ileum port, 6 hr): 1.17 ± 0.75 ng/mL; Mean plasma concentration, Systemic (ileum port, 8 hr): 2.04 ± 0.20 ng/mL; Mean plasma concentration, Systemic (ileum port, 12 hr): 0.85 ± 0.95 ng/mL; Mean plasma concentration, Systemic (ileum port, 24 hr): 0.47 ng/mL; Mean plasma concentration, Portal Vein (jejunal port, 0.5 hr): 0.12 ng/mL; Mean plasma concentration, Systemic (jejunal port, 0.5 hr): BQL; Mean plasma concentration, Portal Vein (jejunal port, 1 hr): 0.16 ± 0.10 ng/mL; Mean plasma concentration, Systemic (jejunal port, 1 hr): 0.38 ng/mL; Mean plasma concentration, Portal Vein (jejunal port, 2 hr): 0.39 ± 0.04 ng/mL; Mean plasma concentration, Systemic (jejunal port, 2 hr): 0.32 ± 0.11 ng/mL; Mean plasma concentration, Portal Vein (jejunal port, 3 hr): 0.97 ± 0.76 ng/mL; Mean plasma concentration, Systemic (jejunal port, 3 hr): 0.47 ± 0.38 ng/mL; Mean plasma concentration, Portal Vein (jejunal port, 4 hr): 2.38 ± 2.20 ng/mL; Mean plasma concentration, Systemic (jejunal port, 4 hr): 0.89 ± 0.67 ng/mL; Mean plasma concentration, Portal Vein (jejunal port, 6 hr): 1.65 ± 1.13 ng/mL; Mean plasma concentration, Systemic (jejunal port, 6 hr): 1.59 ± 1.71 ng/mL; Mean plasma concentration, Portal Vein (jejunal port, 8 hr): 2.70 ± 0.59 ng/mL; Mean plasma concentration, Systemic (jejunal port, 8 hr): 1.71 ± 1.54 ng/mL; Mean plasma concentration, Systemic (jejunal port, 10 hr): 1.81 ± 1.09 ng/mL; Mean plasma concentration, Portal Vein (jejunal port, 12 hr): 2.62 ± 0.29 ng/mL; Mean plasma concentration, Systemic (jejunal port, 12 hr): 1.03 ± 0.05 ng/mL; Mean plasma concentration, Portal Vein (jejunal port, 24 hr): 0.66 ng/mL; Mean plasma concentration, Systemic (jejunal port, 24 hr): 0.45 ± 0.29 ng/mL; AUC0-INF (portal vein samples, 0.2 mg/kg 9-NC via COLON port): 20.81 ± 9.57 ng·h/mL; AUC0-INF (portal vein samples, 0.2 mg/kg 9-NC via JEJUNUM port): 50.26 ± 6.65 ng·h/mL; AUCLast [4]: 12.69 ± 5.10 ng·h/mL; CMAX [4]: 2.28 ± 1.59 ng/mL; MRT [4]: 7.54 ± 0.61 h; T1/2 [4]: 3.98 ± 0.25 h; TMAX [4]: 4.00 ± 2.00 h; AUCLast [5]: 11.83 ± 12.85 ng·h/mL; CMAX [5]: 4.10 ± 2.28 ng/mL; TMAX [5]: 6.00 ± 0.00 h; AUCLast [6]: 28.70 ± 12.16 ng·h/mL; CMAX [6]: 3.46 ± 1.22 ng/mL; MRT [6]: 13.97 ± 2.62 h; T1/2 [6]: 6.54 ± 1.30 h; TMAX [6]: 9.33 ± 4.62 h; AUC0-INF (systemic samples, 0.2 mg/kg 9-NC via COLON port): 36.91 ± 22.62 ng·h/mL; AUC0-INF (systemic samples, 0.2 mg/kg 9-NC via ILEUM port): 21.23 ± 14.94 ng·h/mL; AUC0-INF (systemic samples, 0.2 mg/kg 9-NC via JEJUNUM port): 24.41 ± 7.77 ng·h/mL; AUCLast [7]: 19.34 ± 11.92 ng·h/mL; CMAX [7]: 1.29 ± 0.63 ng/mL; MRT [7]: 57.62 ± 42.79 h; T1/2 [7]: 15.16 ± 14.34 h; TMAX [7]: 9.33 ± 2.31 h; AUCLast [8]: 18.69 ± 11.73 ng·h/mL; CMAX [8]: 2.04 ± 0.20 ng/mL; MRT [8]: 10.64 ± 5.14 h; T1/2 [8]: 4.09 ± 4.24 h; TMAX [8]: 8.00 ± 0.00 h; AUCLast [9]: 18.86 ± 5.73 ng·h/mL; CMAX [9]: 1.99 ± 1.39 ng/mL; MRT [9]: 15.64 ± 8.69 h; T1/2 [9]: 7.20 ± 5.98 h; TMAX [9]: 8.67 ± 2.31 h
